Source: the supplement of paper PMC9663587

Tests used:
Assay in all cases: area over the GR curve, 72 h; higher = more effect;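 further: Dye Drop or Deep Dye Drop imaging of viable cells in 384-well plates (Hoechst nuclei, LIVE/DEAD dye), nine half-log doses, GR normalized to DMSO controls and time-zero plates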
[1] = test system: MDAMB175VII
[2] = test system: MDAMB436
[3] = test system: HCC1187
[4] = test system: SUM44PE
[5] = test system: HCC70
[6] = test system: MCF12A
[7] = test system: HCC1143
[8] = test system: HCC202
[9] = test system: MDAMB453
[10] = test system: UACC893
[11] = test system: MCF10A
[12] = test system: BT474
[13] = test system: MDAMB415
[14] = test system: MGH312

SMILES	area over the GR curve [1] [GR]	area over the GR curve [2] [GR]	area over the GR curve [3] [GR]	area over the GR curve [4] [GR]	area over the GR curve [5] [GR]	area over the GR curve [6] [GR]	area over the GR curve [7] [GR]	area over the GR curve [8] [GR]	area over the GR curve [9] [GR]	area over the GR curve [10] [GR]	area over the GR curve [11] [GR]	area over the GR curve [12] [GR]	area over the GR curve [13] [GR]	area over the GR curve [14] [GR]	area over the GR curve ([2]; main component drawn) [GR]	area over the GR curve ([5]; main component drawn) [GR]	area over the GR curve ([7]; main component drawn) [GR]	area over the GR curve ([9]; main component drawn) [GR]	area over the GR curve ([11]; main component drawn) [GR]
NC1(C(=O)N[C@@H](CCO)c2ccc(Cl)cc2)CCN(c2nc[nH]c3nccc2-3)CC1 [AZD5363] (max 10 µM)	0.622	0.104	-0.203	0.596	0.661	0.142	0.0834	0.236	0.234	0.769	0.0283	0.568	0.855	1.44					
C[C@@H]1COCCN1c1cc(C2([S@](C)(=N)=O)CC2)nc(-c2cc[nH]c3nccc2-3)n1 [AZD6738] (max 10 µM)	0.063	0.0381	0.249	0.365	0.283	0.192	0.0282	0.0023	0.0984	0.0149	0.0334	0.0277	0.0148	-0.22					
NC(=O)Nc1cc(-c2cccc(F)c2)sc1C(=O)N[C@H]1CCCNC1 [AZD7762] (max 10 µM)	0.816	0.65	0.776	0.738	0.839	0.521	0.621	0.652	0.853	0.431	0.225	0.0464	0.398	0.469					
Cc1nc(NC(=O)N2CCC[C@H]2C(N)=O)sc1-c1ccnc(C(C)(C)C(F)(F)F)c1 [Alpelisib/BYL719] (max 10 µM)	0.563	0.0552	0.0302	0.33	0.112	0.0144	0.174	0.351	0.335	0.492	0.113	0.468	0.0453	-0.015					
CN(C)C/C=C/C(=O)Nc1ccc(O[C@@H]2CCC[C@@H](Nc3ncc(Cl)c(-c4c[nH]c5ccccc45)n3)C2)cc1 [BSJ-01-175] (max 10 µM)	1.21	0.82	1.08	1.27	1.07	0.146	0.684	0.685	1.08	0.927	0.3	0.826	0.676	1.47					
CC(=O)c1c(C)c2cnc(Nc3ccc(N4CCN(CCOCCOCCOCCNC(=O)COc5cccc6c5C(=O)N(C5CCC(=O)NC5=O)C6=O)CC4)cn3)nc2n(C2CCCC2)c1=O (configuration not stated) [BSJ-03-123] (max 10 µM)	0.446	0.0446	-0.0405	0.284	0.181	0.136	0.265	0.221	0.267	0.34	0.323	0.464	0.332	0.129					
CC(C)Nc1cc(-c2c[nH]c(C(=O)N[C@H](CO)c3cccc(Cl)c3)c2)c(Cl)cn1 [BVD523] (max 10 µM)	0.472	0.0948	-0.297	0.218	0.296	0.111	0.27	0.174	0.0704	0.267	0.311	-0.0171	0.121	-0.0209					
Cc1c(N)nc([C@H](CC(N)=O)NC[C@H](N)C(N)=O)nc1C(=O)N[C@H](C(=O)N[C@H](C)[C@@H](O)[C@H](C)C(=O)N[C@H](C(=O)NCCc1nc(-c2nc(C(=O)NCCC[S+](C)C)cs2)cs1)[C@@H](C)O)[C@@H](OC1OC(CO)C(O)C(O)C1OC1OC(CO)C(O)C(OC(N)=O)C1O)c1cnc[nH]1 (some centres not stated) [Bleomycin] (max 10 µM)															0.309	0.419	0.658	0.198	0.449
Nc1cc(C(F)(F)F)c(-c2cc(N3CCOCC3)nc(N3CCOCC3)n2)cn1 [Buparlisib/NVP-BKM120] (max 10 µM)	0.705	0.292	0.425	0.436	0.435	0.168	0.392	0.371	0.331	0.587	0.249	0.53	0.35	0.506					
COc1cc2nccc(Oc3ccc(NC(=O)C4(C(=O)Nc5ccc(F)cc5)CC4)cc3)c2cc1OC [Cabozantinib] (max 10 µM)	-0.124	0.0531	0.39	0.0196	0.255	-0.0141	0.102	-0.0223	-0.0455	-0.159	-0.0114	-0.109	-0.0499	-0.0125					
COc1cc2c(Oc3ccc4[nH]c(C)cc4c3F)ncnc2cc1OCCCN1CCCC1 [Cediranib/AZD2171] (max 10 µM)	0.193	0.161	0.195	-0.0271	0.0746	-0.0002	0.165	0.0677	0.126	0.122	0.031	-0.139	0.246	-0.0345					
Cc1cc(Nc2ncc(Cl)c(Nc3ccccc3S(=O)(=O)C(C)C)n2)c(OC(C)C)cc1C1CCNCC1 [Ceritinib/LDK378] (max 10 µM)	-0.0348	0.415	0.168	0.131	0.0676	0.0596	0.285	0.119	0.461	-0.0026	0.184	-0.229	0.085	0.001					
N.N.[Cl][Pt][Cl] [Cisplatin] (max 10 µM)		0.36			0.253		0.303		0.0713		0.0952								
Cc1nc(Nc2ncc(C(=O)Nc3c(C)cccc3Cl)s2)cc(N2CCN(CCO)CC2)n1 [Dasatinib] (max 10 µM)	0.972	0.102	0.618	0.128	1.06	0.42	0.447	0.779	0.0776	-0.149	0.339	0.695	0.272	0.908					
COc1cccc2c1C(=O)c1c(O)c3c(c(O)c1C2=O)C[C@@](O)(C(=O)CO)C[C@@H]3O[C@H]1C[C@H](N)[C@H](O)[C@H](C)O1 [Doxorubicin] (max 3.162 µM)	0.908	0.706	1.08	0.629	0.775	0.601	0.718	0.358	0.786	0.611	0.655	0.578	0.834	1.07					
CC[C@@]1(O)C(=O)OCc2c1cc1n(c2=O)Cc2cc3c(CN(C)C)c(O)ccc3nc2-1 [Topotecan] (max 10 µM)		0.877			1.06		0.904		0.926		0.765								
